Experimental data: patent US11013719B2, “Sunitinib formulations and methods for use thereof in treatment of glaucoma” (The Johns Hopkins University, priority 2014, dated 2021)

Legend:
immunopanned RGCs = assay: Survival of immunopanned primary RGCs in culture; assay type: cell-based, mice; conditions: for Neuroprotective (survival-promoting) activity on primary RGCs in culture: increasing doses, 72 hours in culture; for Toxicity in primary RGC culture: nanomolar doses
Procedure: All animal use was in accordance with ARVO Statement for the Use of Animals, and all the experimental procedures were performed in compliance with animal protocols approved by the IACUC at Johns Hopkins University. Retinas were isolated from postnatal 0-5 day mice and dissociated with papain. Microglia was immunodepleted with anti-CD11b conjugated Dynabeads. The suspension of retinal cells were immunopanned on plates pre-conjugated with anti-Thy1.2 antibody (Serotec, MCA028) and anti-mouse IgM at room temperature (RT). After washing, RGCs were released from the plate by a cell lifter, counted, and seeded at a density of 10,000 per well in 96-well plates in the media composed of Neurobasal, B27, N2 supplement, L-glutamine, and penicillin/streptomycin. […] Images were taken from portions of each well with Cellomics Kinetscan, and cell survival was quantified and calculated with the algorithms in Cellomics Neuroprofiling package. As indicated, RGC viability was alternatively measured by CellTiter-Glo luminescence (Promega).
For siRNA-based screening, the siRNAs from the Sigma Mission Mouse Kinome library were complexed with NeuroMag (Oz Biosciences) at a final concentration of 20 nM. […] Confirmatory siRNAs were obtained from both Dharmacon and Ambion. […] RGCs were cultured for 48 h, and cell viability was analyzed on a plate reader (ViewLux, Perkin Elmer) using the bioluminescent CellTiterGlo (Promega) assay. Concentration response curves were created using CurveFit (NIH NCATS).

optic nerve axons = assay: Rat laser-induced ocular hypertension (glaucoma model); assay type: in vivo, Wistar rats; conditions: for Neuroprotection in the glaucoma model: intravitreal PLGA microspheres / slow release formulation
Procedure: (§1) 6-week old male Wistar rats were anesthetized with ketamine/xylazine. A partial periotomy was made to expose the sclera. The injection site was approximately 1 mm posterior to the ora serrata, and the injection glass pipet was angled towards the optic disc in order to avoid lens injury. 5 μL (10 μg) of PLGA microspheres were injected with a glass pipet and Hamilton syringe.
Intraocular pressure (IOP) was unilaterally elevated by laser treatment of the trabecular meshwork as previously described^7. Briefly, 6-week old Wistar male rats were anesthetized with ketamine/xylazine. On two consecutive weeks, 40-50 532 nm diode laser spots were applied to the prelimbal region (50 μm diameter, 600 mW power and 0.6 seconds duration). Under anesthesia, the IOP of laser-treated and fellow eyes was measured with TonoLab one and three days after laser treatment. Four weeks following laser treatment, rats were perfused with 4% paraformaldehyde in phosphate buffer. Optic nerves were isolated, postfixed with 1% osmium tetroxide, embedded in epoxy resin and stained with 1% toluidine blue. Images from 10 random and nonoverlapping fields were taken with 100× oil phase contrast objective. The area of entire optic nerve cross-sections were imaged with 10× magnification, and used with axon counts from the 10 field to derive axon counts per nerve. The laser treatment and acquisition of optic nerve images were performed in a masked fashion.

RGCs [1] = assay: Rat optic nerve transection after intravitreal microspheres; assay type: in vivo, Wistar rats
Procedure: as §1
The optic nerve was exposed by a partial peritomy and intraorbital dissection of the extraocular muscles, and then transected with a 25-gauge needle. 4-Di-10-ASP were then applied to the proximal nerve stump. Care was taken to avoid vascular injury during the transection, and retinal perfusion was examined after nerve transection. Two weeks after transection, rats were sacrificed and enucleated. Retinas were flatmounted, imaged with confocal microscopy and the number of 4-Di-10-ASP-labeled cells with RGC morphology was quantified. Imaging and quantification of RGC survival were performed in a masked fashion.

DLK = DLK signaling in immunopanned RGCs (Western blot of phospho-MKK7 and phospho-JNK); assay type: cell-based, mice; conditions: same concentrations that increase RGC survival
Procedure: Western blots were performed according to the standard protocol. The following antibodies were from Cell Signaling Technology: Phospho-JNK, Thr183/Tyr185 (4671); JNK (9258); Phospho-MKK7 (4171), and MKK7 (4172). Monoclonal anti-alpha-tubulin antibody (T6074) was purchased from Sigma. DLK rabbit polyclonal was provided by S. Hirai.
To assess sunitinib's effect on DLK signaling in RGCs, immunopanned cells were cultured in the presence of increasing amounts of sunitinib.

[2] = Solubility of sunitinib in aqueous solution; assay type: physicochemical
kinases = conditions: at neuroprotective concentrations; cited from earlier work
RGCs [3] = assay: Whole-cell patch-clamp recordings from RGCs at two weeks in culture
Source text: Recordings were made by using the whole-cell patch-clamp technique in both current- and voltage-clamp modes with an Axopatch 200B. Data were low-pass filtered at 1 kHz (Bessel) and sampled at 10 kHz. […] The recording pipette was filled with the following intracellular solution (in mM): 100 K-gluconate, 50 KCl, 20 HEPES, 10 EGTA, 5 MgCl2, 2 ATP, 0.1 GTP, pH adjusted to 7.33 with KOH. The cells were continuously perfused with (in mM): 140 NaCl, 5 KCl, 1 MgCl2, 2.5 CaCl2), 10 glucose, 10 HEPES, pH 7.4 with NaOH.
To determine whether the RGCs that are kept alive for extended periods with DLK siRNA or sunitinib treatment remain functional, patch-clamp recordings were performed at two weeks in culture.

Compound: O=C(c1ccc(/C=C/c2n[nH]c3ccccc23)cc1)N1CCNCC1 [KW-2449]
- Neuroprotective (survival-promoting) activity on primary RGCs in culture (immunopanned RGCs): promoted the survival of primary RGCs in culture

Compound: CCN(CC)CCNC(=O)c1c(C)[nH]c(/C=C2\C(=O)Nc3ccc(C(=O)N(C)C)cc32)c1C [SR8165]
- DLK toxicity (immunopanned RGCs): reduced DLK toxicity
- Neuroprotective (survival-promoting) activity on primary RGCs in culture (immunopanned RGCs): greater efficacy in vitro
- Neuroprotection in the glaucoma model (optic nerve axons): conferred similar neuroprotection

Compound: CN(C)S(=O)(=O)c1ccc2c(c1)/C(=C/c1cc3c([nH]1)CCCC3)C(=O)N2 [SU6656]
- Neuroprotective (survival-promoting) activity on primary RGCs in culture (immunopanned RGCs): neuroprotective

Compound: CCN(CC)CCNC(=O)c1c(C)[nH]c(/C=C2\C(=O)Nc3ccc(F)cc32)c1C [Sunitinib]
- Neuroprotective (survival-promoting) activity on primary RGCs in culture (immunopanned RGCs): dose-dependent increase in the viability of primary RGCs
- Increase in surviving RGCs compared to control animals (RGCs [1]; intravitreal PLGA microspheres 7 days before transection, two weeks post-transection): 3-4 fold
- Reduction of optic nerve axon loss (optic nerve axons; intravitreal drug-eluting microspheres, one month, p<0.05): 40%
- Phosphorylation of targets downstream of DLK, including MKK7 and JNK (DLK): decrease in the phosphorylation
- Solubility in aqueous solution [2]: pH dependent
- Number of kinases inhibited (kinases): ~200 kinases
- Functionality of RGCs kept alive for extended periods (RGCs [3]): conducted action potentials in response to depolarizing current and were responsive to exogenously applied glutamate

Compound: COc1cc(N2CCC(N3CCN(C)CC3)CC2)ccc1Nc1ncc(Cl)c(Nc2ccccc2S(=O)(=O)C(C)C)n1 [TAE-684]
- Toxicity in primary RGC culture (immunopanned RGCs): limited by toxicity at nanomolar doses

Compound: Cc1cc(Nc2cc(N3CCN(C)CC3)nc(Sc3ccc(NC(=O)C4CC4)cc3)n2)[nH]n1 [Tozasertib, tozasertib]
- Neuroprotective (survival-promoting) activity on primary RGCs in culture (immunopanned RGCs): promoted the survival of primary RGCs in culture
- Protection of RGCs in the optic nerve transection model (RGCs [1]; intravitreal slow release formulation): protected RGCs
- Neuroprotection in the glaucoma model (optic nerve axons): protected RGCs

Compound: C[C@@H](Oc1cc(-c2cnn(C3CCNCC3)c2)cnc1N)c1c(Cl)ccc(F)c1Cl [crizotinib]
- Neuroprotective (survival-promoting) activity on primary RGCs in culture (immunopanned RGCs): promoted the survival of primary RGCs in culture

Compound: COc1cc2c(Oc3ccc(NC(=O)C4(C(=O)Nc5ccc(F)cc5)CC4)cc3F)ccnc2cc1OCCCN1CCOCC1 [foretinib]
- Neuroprotective (survival-promoting) activity on primary RGCs in culture (immunopanned RGCs): promoted the survival of primary RGCs in culture

Compound: Cc1ccc(NC(=O)c2ccc(CN3CCN(C)CC3)cc2)cc1Nc1nccc(-c2cccnc2)n1 [imatinib]
- Neuroprotective (survival-promoting) activity on primary RGCs in culture (immunopanned RGCs): lack neuroprotective activity

Compound: CCOc1cc2ncc(C#N)c(Nc3ccc(OCc4ccccn4)c(Cl)c3)c2cc1NC(=O)/C=C/CN(C)C [neratinib]
- Toxicity in primary RGC culture (immunopanned RGCs): limited by toxicity at nanomolar doses

Compound: CNC(=O)c1cc(Oc2ccc(NC(=O)Nc3ccc(Cl)c(C(F)(F)F)c3)cc2)ccn1 [sorafenib]
- Neuroprotective (survival-promoting) activity on primary RGCs in culture (immunopanned RGCs): lack neuroprotective activity

Compound: Clc1ccc(Nc2nnc(Cc3ccncc3)c3ccccc23)cc1 [vatalanib]
- Neuroprotective (survival-promoting) activity on primary RGCs in culture (immunopanned RGCs): lack neuroprotective activity

Compound: lestautinib
- Neuroprotective (survival-promoting) activity on primary RGCs in culture (immunopanned RGCs): promoted the survival of primary RGCs in culture
